Measured values taken from paper PMC12260505, “First-in-Human Phase I/IIa Study of the First-in-Class CDK2/4/6 Inhibitor PF-06873600 Alone or with Endocrine Therapy in Patients with Breast Cancer” (Clinical Cancer Research, 2025).
Where “and” joins values, the source holds several entries; their conditions need not be identical. Identical values can stand only once.

Assay: Plasma PF-06873600 pharmacokinetics (LC/MS-MS, noncompartmental analysis)
Format: in vivo, human
Method: Plasma samples were analyzed for PF-06873600 concentrations at Q2 Solutions using a validated analytic assay in compliance with Pfizer standard operating procedures. PF-06873600 samples were assayed by a validated LC/MS-MS using positive ionization mode. PK parameters were calculated using noncompartmental analysis of plasma concentration–time data.

[1] = Cycle 1 Day 15, Part 1A 1 mg BID IR
[2] = Cycle 1 Day 15, Part 1A 2 mg BID IR
[3] = Cycle 1 Day 15, Part 1A 5 mg BID IR
[4] = Cycle 1 Day 15, Part 1A 10 mg BID IR
[5] = Cycle 1 Day 15, Part 1A 25 mg BID Biomarker IR
[6] = Cycle 1 Day 15, Part 1A 25 mg BID IR
[7] = Cycle 1 Day 15, Part 1A 35 mg BID IR
[8] = Cycle 1 Day 15, Part 1A 35 mg BID Intm 5/2 IR
[9] = Cycle 1 Day 15, Part 1A 50 mg BID IR
[10] = Cycle 1 Day 15, Part 1B 25 mg BID +Ful IR
[11] = Cycle 1 Day 15, Part 1B 25 mg BID +Let IR
[12] = Cycle 1 Day 15, Part 1C MR 30 mg BID long duration
[13] = Day -4, Part 1C single dose 20 mg MR Long Duration
[14] = Day -7, Part 1C single dose 20 mg MR Short Duration

C[C@@]1(O)CCC[C@H]1n1c(=O)c(C(F)F)cc2cnc(NC3CCN(S(C)(=O)=O)CC3)nc21 [PF-06873600]
Cmax, individual value(s) [1]: 10.9 ng/mL | Cmin, individual value(s) [1]: 0.000 ng/mL | Rac (observed accumulation ratio based on AUC), individual value(s) [1]: 1.21 | Tmax, median (range) [1]: 1.00 h | AUCtau, individual value(s) [2]: 51.4 ng·h/mL and 86.9 ng·h/mL | CL/F, individual value(s) [2]: 23.0 L/h and 38.9 L/h | Cmax, individual value(s) [2]: 18.2 ng/mL and 45.4 ng/mL | Rac (observed accumulation ratio based on AUC), individual value(s) [2]: 1.16 | Tmax, median (range) [2]: 1.25 h | Vz/F, individual value(s) [2]: 53.3 L and 98.4 L | t1/2, individual value(s) [2]: 5800 s and 6300 s | Cmin, individual value(s) (Cycle 1 Day 15, Part 1A 2 mg BID IR (both patients 0.000)): 0.000 ng/mL | AUCtau, individual value(s) [3]: 150 ng·h/mL and 483 ng·h/mL | CL/F, individual value(s) [3]: 10.4 L/h and 33.2 L/h | Cmax, individual value(s) [3]: 46.3 ng/mL and 126 ng/mL | Cmin, individual value(s) [3]: 1.19 ng/mL and 23.6 ng/mL | Rac (observed accumulation ratio based on AUC), individual value(s) [3]: 1.53 | Tmax, median (range) [3]: 1.20 h | Vz/F, individual value(s) [3]: 124 L | t1/2, individual value(s) [3]: 9320 s | AUCtau, geometric mean (%CV) [4]: 448.8 (25) ng.h/mL | CL/F, geometric mean (%CV) [4]: 22.28 (24) L/h | Cmax, geometric mean (%CV) [4]: 124.3 (29) ng/mL | Cmin, geometric mean (%CV) [4]: 5.499 (5) ng/mL | Rac (observed accumulation ratio based on AUC), geometric mean (%CV) [4]: 0.7263 | Tmax, median (range) [4]: 2.00 h | Vz/F, geometric mean (%CV) [4]: 72.17 (19) L | t1/2, arithmetic mean±standard deviation [4]: 2.250 h | AUCtau, geometric mean (%CV) [5]: 1010 (40) ng.h/mL | CL/F, geometric mean (%CV) [5]: 24.76 (40) L/h | Cmax, geometric mean (%CV) [5]: 246.4 (40) ng/mL | Cmin, geometric mean (%CV) [5]: 21.28 (130) ng/mL | Rac (observed accumulation ratio based on AUC), geometric mean (%CV) [5]: 1.254 (49) | Tmax, median (range) [5]: 1.92 h | Vz/F, geometric mean (%CV) [5]: 99.62 (35) L | t1/2, arithmetic mean±standard deviation [5]: 2.797 h | AUCtau, geometric mean (%CV) [6]: 1695 (34) ng.h/mL | CL/F, geometric mean (%CV) [6]: 14.78 (34) L/h | Cmax, geometric mean (%CV) [6]: 382.4 (33) ng/mL | Cmin, geometric mean (%CV) [6]: 37.63 ng/mL | Rac (observed accumulation ratio based on AUC), geometric mean (%CV) [6]: 1.045 (17) | Tmax, median (range) [6]: 1.95 h | Vz/F, geometric mean (%CV) [6]: 57.62 (29) L | t1/2, arithmetic mean±standard deviation [6]: 2.733 h | AUCtau, individual value(s) [7]: 2060 ng·h/mL and 2360 ng·h/mL | CL/F, individual value(s) [7]: 14.8 L/h and 17.0 L/h | Cmax, individual value(s) [7]: 362 ng/mL and 399 ng/mL | Cmin, individual value(s) [7]: 52.1 ng/mL and 80.4 ng/mL | Rac (observed accumulation ratio based on AUC), individual value(s) [7]: 0.822 | Tmax, median (range) [7]: 2.01 h | Vz/F, individual value(s) [7]: 70.8 L | t1/2, individual value(s) [7]: 11900 s | AUCtau, geometric mean (%CV) [8]: 1372 (39) ng.h/mL | CL/F, geometric mean (%CV) [8]: 25.54 (39) L/h | Cmax, geometric mean (%CV) [8]: 290.2 (29) ng/mL | Cmin, geometric mean (%CV) [8]: 25.56 (8) ng/mL | Rac (observed accumulation ratio based on AUC), geometric mean (%CV) [8]: 0.8893 | Tmax, median (range) [8]: 2.23 h | Vz/F, geometric mean (%CV) [8]: 99.03 (48) L | t1/2, arithmetic mean±standard deviation [8]: 2.752 h | AUCtau, geometric mean (%CV) [9]: 1607 (34) ng.h/mL | CL/F, geometric mean (%CV) [9]: 21.99 (44) L/h | Cmax, geometric mean (%CV) [9]: 335.2 (22) ng/mL | Cmin, geometric mean (%CV) [9]: 25.63 ng/mL | Rac (observed accumulation ratio based on AUC), geometric mean (%CV) [9]: 1.260 (25) | Tmax, median (range) [9]: 1.98 h | Vz/F, geometric mean (%CV) [9]: 75.41 (17) L | t1/2, arithmetic mean±standard deviation [9]: 2.535 h | AUCtau, geometric mean (%CV) [10]: 1229 (41) ng.h/mL | CL/F, geometric mean (%CV) [10]: 20.35 (41) L/h | Cmax, geometric mean (%CV) [10]: 305.0 (35) ng/mL | Cmin, geometric mean (%CV) [10]: 21.25 ng/mL | Rac (observed accumulation ratio based on AUC), geometric mean (%CV) [10]: 1.191 (29) | Tmax, median (range) [10]: 1.88 h | Vz/F, geometric mean (%CV) [10]: 75.71 (32) L | t1/2, arithmetic mean±standard deviation [10]: 2.508 h | AUCtau, geometric mean (%CV) [11]: 1273 (50) ng.h/mL | CL/F, geometric mean (%CV) [11]: 19.63 (49) L/h | Cmax, geometric mean (%CV) [11]: 276.5 (31) ng/mL | Cmin, geometric mean (%CV) [11]: 13.33 ng/mL | Rac (observed accumulation ratio based on AUC), geometric mean (%CV) [11]: 1.268 (35) | Tmax, median (range) [11]: 2.08 h | Vz/F, geometric mean (%CV) [11]: 80.33 (27) L | t1/2, arithmetic mean±standard deviation [11]: 2.468 h | AUCtau, geometric mean (%CV) [12]: 636.8 (59) ng.h/mL | CL/F, geometric mean (%CV) [12]: 47.08 (59) L/h | Cmax, geometric mean (%CV) [12]: 82.1 ng/mL | Cmin, geometric mean (%CV) [12]: 45.78 (49) ng/mL | Tmax, median (range) [12]: 2.99 (0.000–4.00) h | AUCinf, individual value(s) [13]: 584 ng·h/mL and 713 ng·h/mL | AUClast, geometric mean (%CV) [13]: 469.7 (63) ng.h/mL | CL/F, individual value(s) [13]: 28.0 L/h and 34.3 L/h | Cmax, geometric mean (%CV) [13]: 39 ng/mL | Tmax, median (range) [13]: 12.0 (6.00–12.0) h | Vz/F, individual value(s) [13]: 163 L and 496 L | t1/2, individual value(s) [13]: 14500 s and 36000 s | AUCinf, geometric mean (%CV) [14]: 687.8 (73) ng.h/mL | AUClast, geometric mean (%CV) [14]: 639.7 (67) ng.h/mL | CL/F, geometric mean (%CV) [14]: 29.05 (73) L/h | Cmax, geometric mean (%CV) [14]: 73.7 ng/mL | Tmax, median (range) [14]: 5.33 (2.00–6.00) h | Vz/F, geometric mean (%CV) [14]: 218.1 (50) L | t1/2, arithmetic mean±standard deviation [14]: 6.778 ± 5.7890 h | Part of dosing interval with mean steady-state PK concentrations above predicted effective concentrations (Ceff) (RDE 25 mg twice daily, Ceff from HCC1428, HCC1806, and Ovar3 models): at least 70 % of the dosing interval | Criterion of concentrations above Ceff for at least 70% of the dosing interval (RDE 25 mg twice daily, Ceff from the MCF7 model): not achieved | Plasma exposures, monotherapy vs combination therapy with fulvestrant or letrozole (in vivo): largely comparable
